Legend:
[1] = molecular target: T1, recombinant human liver glycogen phosphorylase (Homo sapiens, UniProt P06737); assay: Measuring liver glycogen phosphorylase activity (forward reaction system, NADPH absorbance at 340 nm); assay type: biochemical; details: enzyme inhibitory activity with respect to liver glycogen phosphorylase; class symbols
T1 construct: made in house; host or cells: Sf9 insect cells (crude homogenate, diluted, used as the enzyme solution)
T1 sequence (P06737 1-847): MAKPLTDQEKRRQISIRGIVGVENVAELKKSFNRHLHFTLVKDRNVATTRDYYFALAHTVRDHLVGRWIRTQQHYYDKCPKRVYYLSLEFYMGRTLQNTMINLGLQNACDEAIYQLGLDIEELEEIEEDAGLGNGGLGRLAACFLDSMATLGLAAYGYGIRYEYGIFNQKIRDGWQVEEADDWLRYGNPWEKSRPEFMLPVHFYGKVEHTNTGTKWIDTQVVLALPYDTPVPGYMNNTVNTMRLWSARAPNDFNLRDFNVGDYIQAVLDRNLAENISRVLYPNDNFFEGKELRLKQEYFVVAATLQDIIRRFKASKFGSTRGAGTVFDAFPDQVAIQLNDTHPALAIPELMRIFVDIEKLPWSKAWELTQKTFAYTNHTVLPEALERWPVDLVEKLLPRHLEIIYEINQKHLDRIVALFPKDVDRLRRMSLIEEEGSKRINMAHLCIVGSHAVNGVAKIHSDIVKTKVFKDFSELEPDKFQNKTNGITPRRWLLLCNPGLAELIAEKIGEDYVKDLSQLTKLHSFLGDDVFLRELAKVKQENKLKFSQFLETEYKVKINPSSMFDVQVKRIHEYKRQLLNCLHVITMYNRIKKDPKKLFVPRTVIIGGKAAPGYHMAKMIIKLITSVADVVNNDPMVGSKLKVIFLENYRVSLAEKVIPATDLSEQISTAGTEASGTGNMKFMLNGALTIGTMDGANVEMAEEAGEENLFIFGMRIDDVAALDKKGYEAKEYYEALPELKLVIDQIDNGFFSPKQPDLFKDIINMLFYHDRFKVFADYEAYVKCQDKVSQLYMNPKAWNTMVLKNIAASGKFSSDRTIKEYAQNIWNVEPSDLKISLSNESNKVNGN
Method in brief: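 Compounds in 1% DMSO; activity taken as blank-subtracted 340 nm absorbance change across 75 min at room temperature. Forward reaction: glucose-1-phosphate released from glycogen converted by coupling enzymes, yielding NADPH; enzyme from recombinant Sf9 homogenate, reaction containing glucose, pH 6.8. IC50 from two-point linear interpolation.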

[2] = system: db/db mice; assay: Measuring blood plasma glucose concentration in db/db mice (hypoglycemic effect); assay type: in vivo; parameters: key: ++: compounds exhibiting statistically significant hypoglycemic effect at a dose of 10 mg/kg or less; +: compounds exhibiting not significant but obvious hypoglycemic effect at a dose of 10 mg/kg; details: db/db mice fasted 4 h, oral administration, plasma glucose 1 and 3 hours after administration, dose 10 mg/kg or less, Dunnett test vs solvent
Procedure: 2. Exemplary Test (2) Method for Measuring Blood Plasma Glucose Concentration
Using db/db mice representing an obesity type of diabetic model were used to examine the effect of compound (1) of the present invention on glucose concentrations in plasma. Plasma glucose concentrations of the db/db mice (9-18 weeks old) were measured, and the mice were divided into groups each of 5 or 8 mice such that there would be no difference in the average value of plasma glucose concentrations. After fasting for four hours, the example compound or the solvent (0.5% methylcellulose) was administered orally to the db/db mice, and plasma glucose concentrations were measured 1 and 3 hours after administration. The analysis of the hypoglycemic effect of the example compound was performed through a statistical test at every hour between the group receiving the solvent and the groups of example compound (Dunnett test).

SMILES | IC50 [1] [nM] | vivo (hypoglycemic effect in db/db mice) [2]
O=C(NCc1ccc(F)cc1F)c1cc(NC(=O)c2cc(F)c(F)cc2Cl)[nH]n1 [Example 1-19] | < 100 | +
O=C(NCc1c(F)cccc1F)c1cc(NC(=O)c2cc(F)c(F)cc2Cl)[nH]n1 [Example 1-21] | < 100 | +
CC(C)Oc1ncccc1CNC(=O)c1cc(NC(=O)c2cc(F)c(F)cc2Cl)[nH]n1 [Example 1-24] | < 100 | +
O=C(NCc1cccnc1Oc1ccccc1)c1cc(NC(=O)c2cc(F)c(F)cc2Cl)[nH]n1 [Example 1-25] | < 100 | +
O=C(NCc1ncc(F)cc1F)c1cc(NC(=O)c2cc(F)c(F)cc2Cl)[nH]n1 [Example 1-26] | < 100 | +
CC(C)Oc1ccc(CNC(=O)c2cc(NC(=O)c3cc(F)c(F)cc3Cl)[nH]n2)cn1 [Example 1-31] | < 100 | +
CCOc1ccc(CNC(=O)c2cc(NC(=O)c3cc(F)c(F)cc3Cl)[nH]n2)cn1 [Example 1-37] | < 100 | +
O=C(NCc1cscn1)c1cc(NC(=O)c2cc(F)c(F)cc2Cl)[nH]n1 [Example 1-38] | < 100 | +
O=C(NCc1ccc(OCC(F)(F)F)nc1)c1cc(NC(=O)c2cc(F)c(F)cc2Cl)[nH]n1 [Example 1-39] | < 100 | +
Cc1cccc(C)c1CNC(=O)c1cc(NC(=O)c2cc(F)c(F)cc2Cl)[nH]n1 [Example 1-40] | < 100 | +
O=C(NCc1csc(-c2cccnc2)n1)c1cc(NC(=O)c2cc(F)c(F)cc2Cl)[nH]n1 [Example 1-41] | < 100 | +
O=C(NCc1nc2ccccc2[nH]1)c1cc(NC(=O)c2cc(F)c(F)cc2Cl)[nH]n1 [Example 1-42] | < 100 | +
Cc1noc(C)c1CNC(=O)c1cc(NC(=O)c2cc(F)c(F)cc2Cl)[nH]n1 [Example 1-46] | < 100 | ++
Cl.Cn1c(CNC(=O)c2cc(NC(=O)c3cc(F)c(F)cc3Cl)[nH]n2)nc2ccccc21 [Example 1-50] | < 100 | +
O=C(NCc1nc2ccccc2s1)c1cc(NC(=O)c2cc(F)c(F)cc2Cl)[nH]n1 [Example 1-52] | < 100 | +
Cc1ccc(CNC(=O)c2cc(NC(=O)c3cc(F)c(F)cc3Cl)[nH]n2)c(Cl)n1 [Example 1-56] | < 100 | +
COc1ccnc(CNC(=O)c2cc(NC(=O)c3cc(F)c(F)cc3Cl)[nH]n2)c1OC [Example 1-59] | < 100 | ++
Cc1nc(N2CCOCC2)sc1CNC(=O)c1cc(NC(=O)c2cc(F)c(F)cc2Cl)[nH]n1 [Example 1-63] | < 100 | +
COc1ccccc1CNC(=O)c1cc(NC(=O)c2cc(F)c(F)cc2Cl)[nH]n1 [Example 1-66] | < 100 | +
COc1cccc(CNC(=O)c2cc(NC(=O)c3cc(F)c(F)cc3Cl)[nH]n2)c1 [Example 1-67] | < 100 | +
COc1ccc(CNC(=O)c2cc(NC(=O)c3cc(F)c(F)cc3Cl)[nH]n2)cc1 [Example 1-68] | < 100 | +
Cc1ccc(CNC(=O)c2cc(NC(=O)c3cc(F)c(F)cc3Cl)[nH]n2)cc1 [Example 1-69] | < 100 | +
O=C(NCc1ccc(F)cc1)c1cc(NC(=O)c2cc(F)c(F)cc2Cl)[nH]n1 [Example 1-70] | < 100 | ++
O=C(NCc1ccc(Cl)cc1)c1cc(NC(=O)c2cc(F)c(F)cc2Cl)[nH]n1 [Example 1-71] | < 100 | +
COC(=O)c1ccc(CNC(=O)c2cc(NC(=O)c3cc(F)c(F)cc3Cl)[nH]n2)cc1 [Example 1-72] | < 100 | +
O=C(O)c1ccc(CNC(=O)c2cc(NC(=O)c3cc(F)c(F)cc3Cl)[nH]n2)cc1 [Example 1-73] | < 100 | +
CN(C(=O)c1cc(NC(=O)c2cc(F)c(F)cc2Cl)[nH]n1)C1CCCCC1 [Example 1-78] | < 100 | +
CCN(C(=O)c1cc(NC(=O)c2cc(F)c(F)cc2Cl)[nH]n1)C1CCCCC1 [Example 1-80] | < 100 | +
C=CCN(C(=O)c1cc(NC(=O)c2cc(F)c(F)cc2Cl)[nH]n1)C1CCCCC1 [Example 1-81] | < 100 | +

More lines, main results first:

IC50 [1] [nM] | SMILES | vivo (hypoglycemic effect in db/db mice) [2]
< 100 | O=C(Nc1cc(C(=O)N(Cc2ccccn2)C2CCCCC2)n[nH]1)c1cc(F)c(F)cc1Cl [Example 1-82] | +
< 100 | Cl.O=C(NCc1ccc2c(c1)OCO2)c1cc(NC(=O)c2cc(F)c(F)cc2Cl)[nH]n1 [Example 1-84] | ++
< 100 | CCCCN(CC)C(=O)c1cc(NC(=O)c2cc(F)c(F)cc2Cl)[nH]n1 [Example 1-87] | +
< 100 | CCCN(C(=O)c1cc(NC(=O)c2cc(F)c(F)cc2Cl)[nH]n1)C1CCCCC1 [Example 1-88] | +
< 100 | COCCN(C(=O)c1cc(NC(=O)c2cc(F)c(F)cc2Cl)[nH]n1)C1CCCCC1 [Example 1-90] | +
< 100 | O=C(Nc1cc(C(=O)N(Cc2cccnc2)C2CCCCC2)n[nH]1)c1cc(F)c(F)cc1Cl [Example 1-91] | +
< 100 | CCCN(CCOC)C(=O)c1cc(NC(=O)c2cc(F)c(F)cc2Cl)[nH]n1 [Example 1-95] | +
< 100 | CCCCN(C(=O)c1cc(NC(=O)c2cc(F)c(F)cc2Cl)[nH]n1)C1CCOCC1 [Example 1-96] | +
< 100 | COCCN(C(=O)c1cc(NC(=O)c2cc(F)c(F)cc2Cl)[nH]n1)C1CCCC1 [Example 1-98] | +
< 100 | COCCCN(C(=O)c1cc(NC(=O)c2cc(F)c(F)cc2Cl)[nH]n1)C1CCCCC1 [Example 1-99] | +
< 100 | CCOCCN(C(=O)c1cc(NC(=O)c2cc(F)c(F)cc2Cl)[nH]n1)C1CCCCC1 [Example 1-100] | +
< 100 | CCCCN(Cc1cccnc1)C(=O)c1cc(NC(=O)c2cc(F)c(F)cc2Cl)[nH]n1 [Example 1-107] | ++
< 100 | CCCCN(C(=O)c1cc(NC(=O)c2cc(F)c(F)cc2Cl)[nH]n1)C1CCN(C(=O)C(=O)O)CC1 [Example 1-113] | ++
< 100 | CCCN(Cc1ccc(OC)nc1)C(=O)c1cc(NC(=O)c2cc(F)c(F)cc2Cl)[nH]n1 [Example 1-116] | ++
< 100 | CCCN(Cc1cccnc1)C(=O)c1cc(NC(=O)c2cc(F)c(F)cc2Cl)[nH]n1 [Example 1-117] | +
< 100 | CCCN(C(=O)c1cc(NC(=O)c2cc(F)c(F)cc2Cl)[nH]n1)C1CCN(C(=O)C(=O)O)CC1 [Example 1-123] | +
< 100 | COc1ccc(CN(C(=O)c2cc(NC(=O)c3cc(F)c(F)cc3Cl)[nH]n2)C2CC2)cn1 [Example 1-126] | +

Source: US20070032529A1, “Pyrazole compounds and their use as antidiabetes agents” (Japan Tobacco Inc., priority 2005, published 2007)
